In BigSolDB 2.1:

CC(=O)OC(OC(C)=O)c1ccc([N+](=O)[O-])o1
solubility (mole fraction)
Conditions | in 1,4-dioxane | in DMF | in THF | in acetone | in acetonitrile | in ethyl acetate | in methanol | in n-hexane | in n-propanol | in toluene
278.15 K | 0.0821 | 0.161 | 0.121 | 0.0864 | 0.0016 | 0.002 | 0.0778 | 0.0285 | 0.0435 | 0.141
283.15 K | 0.0954 | 0.174 | 0.146 | 0.108 | 0.002 | 0.0031 | 0.0834 | 0.0358 | 0.0474 | 0.154
288.15 K | 0.109 | 0.192 | 0.181 | 0.127 | 0.0028 | 0.0048 | 0.0898 | 0.0458 | 0.0513 | 0.171
293.15 K | 0.131 | 0.209 | 0.217 | 0.156 | 0.0038 | 0.0068 | 0.0995 | 0.0562 | 0.0571 | 0.192
298.15 K | 0.146 | 0.227 | 0.256 | 0.182 | 0.0052 | 0.0101 | 0.108 | 0.0721 | 0.0625 | 0.211
303.15 K | 0.166 | 0.248 | 0.298 | 0.214 | 0.0069 | 0.0143 | 0.118 | 0.0883 | 0.0687 | 0.239
308.15 K | 0.188 | 0.271 | 0.341 | 0.249 | 0.0093 | 0.02 | 0.129 | 0.109 | 0.0761 | 0.267
313.15 K | 0.214 | 0.296 | 0.385 | 0.291 | 0.0126 | 0.0283 | 0.143 | 0.133 | 0.0843 | 0.293
318.15 K | 0.237 | 0.319 | 0.434 | 0.33 | 0.0167 | 0.0405 | 0.155 | 0.162 | 0.0924 | 0.33
323.15 K | 0.267 | 0.351 | 0.488 | 0.379 | 0.0215 | 0.0548 | 0.173 | 0.196 | 0.104 | 0.373
